{"source": "patent US20020095001A1", "about": "“Methods and compositions for topical treatment of damaged tissue using reactive oxygen metabolite production or release inhibitors” (priority 1999, published 2002)", "key": {"NADPH oxidase": {"target": "T1, NADPH oxidase (Homo sapiens, UniProt P04839)", "T1 construct": "host or cells: phagocytes / neutrophils (background description)", "settings": "membrane bound oxidase of phagocytes, substrate preference; generally accepted; cited from earlier work"}, "[1]": {"test_system": "pharyngotosillitis, a herpetic infection of the pharyngeal region", "assay": "Example 5: pharyngotonsillitis treated with a mouthwash", "format": "in vivo, human", "settings": "mouthwash 0.05% by weight, five applications per day for seven days", "procedure": "A subject suffering from pharyngotosillitis, a herpetic infection of the pharyngeal region is treated with a mouthwash containing the ROM inhibitory compound NADPH oxidase inhibitor […] in a concentration of 0.05% by weight of formulation. The treatment consists of five mouthwash applications per day for a period of seven days. The administration of […] was effective in treating the pharyngotosillitis of the subject."}, "[2]": {"test_system": "keratoconjunctivitis or a corneal herpes infection", "settings": "ophthalmic solution 0.09% by weight with ZOVIRAX every three hours, plus solution without ZOVIRAX hourly", "procedure": "A subject presenting keratoconjunctivitis or a corneal herpes infection is treated with the compositions of the present invention using an ophthalmic solution of histamine dihydrochloride at 0.09% by weight of formulation. Commercially available ophthalmic solutions are well known in the art. Additionally, the ophthalmic solution contains ZOVIRAX in an effective concentration. Application of the solution to the eye occurs every three hours. A solution containing only the ROM production and release inhibiting compound is given hourly to ease the discomfort of the subject."}, "[3]": {"test_system": "herpes zoster or shingles lesions", "settings": "ointment approx. 0.004% by weight four times a day plus subcutaneous histamine 10 μg/kg once per week", "procedure": "A subject presenting herpes zoster or shingles lesions is treated with the compounds of the present invention in the form of an ointment. […] The ointment is administered topically to shingles lesions four times a day until the lesions completely heal. A subcutaneous injection of histamine at a concentration of 10 μg/kg of the subject is also administered. The injection is given once per week."}, "psoriasis of the scalp": {"test_system": "psoriasis of the scalp", "procedure": "A subject suffering from psoriasis of the scalp is treated with a shampoo containing approximately 0.008% by weight of histamine dihydrochloride. The subject undergoes UVB treatment in accordance with a protocol well known to those of ordinary skill in the art. In addition, the subject washes their hair once per day with the shampoo containing the ROM production and release inhibitory compound histamine."}, "eczema": {"test_system": "eczema", "settings": "soap approx. 0.1% by weight once daily and lotion approx. 0.0055% by weight up to five times a day", "procedure": "A subject presenting eczema is treated with a lotion and soap containing the ROM production and release inhibitory compound histamine dihydrochloride. The soap contains histamine in a concentration of approximately 0.1% by weight while the lotion contains histamine in a concentration of approximately 0.0055% by weight. The subject bathes with the soap once daily. The affected area is lathered well with the soap, rinsed, and the procedure is repeated. Following the bath, the lotion is applied up to five times throughout the day to the affected area."}, "chemical burn injuries": {"test_system": "chemical burn injuries", "settings": "water-based gel 0.007% by weight; every 10 minutes first hour, every 30 minutes next three hours, then as needed", "procedure": "The compositions of the present invention are administered topically to a subject presenting chemical burn injuries. A water-based gel preparation containing of 0.007% by weight of the formulation of histamine dihydrochloride was administered to the subject's burn injuries. The treatment consisted of topical application of the gel to the burn site every 10 minutes for the first hour, then every 30 minutes for the next three hours. Topical applications thereafter are applied as needed by the subject in response to pain."}, "incision of the skin": {"test_system": "incision of the skin", "settings": "formulation 0.0045% by weight with vitamin A 2000 IU, vitamin E 5000 IU and a topical antibiotic, twice a day", "procedure": "The compositions of the present invention are administered topically to a subject presenting an incision of the skin. A formulation containing histamine dihydrochloride in a concentration of 0.0045% by weight of the formulation, vitamin A at 2000 IU, vitamin E at 5000 IU, and a topical antibiotic is applied to the wound following proper wound cleansing. Subsequent administration of the formulation occurs twice a day and with each change of wound dressing."}, "[4]": {"test_system": "chemical peel treated skin", "settings": "solution 0.008% by weight, soaking five times daily after chemical peel", "source_text": "The solution is applied by soaking the treated five times daily to the treated area."}, "[5]": {"test_system": "laser facial resurfacing treated skin", "settings": "bandage with sterile solution 0.008% by weight five times daily, plus sunscreen 0.008% by weight", "source_text": "The bandage containing the sterile solution of histamine dihydrochloride is applied five times daily to the treated area. A sunscreen containing 0.008% by weight of histamine dihydrochloride is also applied before the subject is to be exposed to sunlight."}, "periodontal disease": {"test_system": "periodontal disease", "settings": "mouthwash and toothpaste, each 0.008% by weight, three times daily", "procedure": "A subject presenting periodontal disease is treated with a mouthwash and toothpaste, each containing 0.008% by weight of histamine dihydrochloride. The subject brushes their teeth three times daily with the toothpaste for ten minutes. Following this cleansing, the subject washes their mouth with the mouthwash, rinses with water, and repeats. The treatment continues until the health of the periodontal tissue improves."}, "herpes labialis [6]": {"test_system": "herpes labialis", "settings": "cream with 0.08% by weight, topical four to five times a day; compared to control cream group", "excerpt": "Treatment of the subjects consists of the topical application of the medication four to five times a day at the lesion site."}, "herpes labialis [7]": {"test_system": "herpes labialis", "settings": "cream 0.08% by weight five times a day together with ZOVIRAX; compared to ZOVIRAX alone", "description": "The ability of the ROM production and release inhibition compounds of the present invention to increase the effectiveness of 9-(2-Hydroxyethoxymethyl)guanine, ZOVIRAX, (GlaxoWellcome) is evaluated in two groups of 10 subjects each. No subjects are suffering from active lesions at the initiation of the study. Group I subjects receive ZOVIRAX according to the dosage given by the manufacturer. […] Application of the cream continues during vesicle formation and until the vesicles have completely healed. Subjects in both groups are instructed to topically apply the product five times a day at the lesion site.\nSubjects participating in the study are instructed to monitor the size and duration of the lesions during the herpetic episode."}, "[8]": {"test_system": "varicella-zoster virus (chicken pox) infection", "settings": "child; paste 0.02% by weight five times per day and soap 0.1% by weight during bathing", "description": "A child presenting the symptoms of chicken pox is treated with the compounds of the present invention. In this example, two products are used to treat the subject. […] The paste is applied five times per day until the vesicles have completely healed."}, "[9]": {"test_system": "photodermatitis (second degree sunburn)", "settings": "aloe vera based gel such as SOOTH-A-CAINE containing 0.006% by weight", "source_text": "The ROM production and release inhibitory compound serotonin is used in a gel to treat a subject presenting photodermatitis (second degree sunburn) and attendant blister formation. The subject has blister formation as well as deep reddening of the epidermis on the back."}, "thermal burn injuries": {"test_system": "thermal burn injuries", "assay": "Example 15: thermal burn injuries treated with a water-based gel", "format": "in vivo, human", "settings": "water-based gel 0.007% by weight; every 10 minutes first hour, every 30 minutes next three hours, then as needed", "description": "The compositions of the present invention are administered topically to a subject presenting thermal burn injuries. A water-based gel preparation containing of 0.007% by weight of the formulation of serotonin was administered to the subject's burn injuries. The treatment consisted of topical application of the gel to the burn site every 10 minutes for the first hour, then every 30 minutes for the next three hours. Topical applications thereafter are applied as needed by the subject in response to pain."}, "herpes genitalis": {"test_system": "herpes genitalis", "settings": "0.07% by weight foam (vaginal) and cream (external), three times a day for five days", "procedure": "Using an applicator, the foam is injected into the vaginal space to treat herpetic lesions therein. The cream is applied topically to external lesions. The cream and foam are applied three times a day for a period of five days."}, "herpes labialis [10]": {"test_system": "herpes labialis", "settings": "0.07% by weight lipstick, three times a day for five days", "source_text": "The treatment consists of topical application three times a day for a period of five days."}}, "data": [{"compound": "NC(=O)C1=CN([C@@H]2O[C@H](COP(=O)(O)OP(=O)(O)OC[C@H]3O[C@@H](n4cnc5c(N)ncnc54)[C@H](O)[C@@H]3O)[C@@H](O)[C@H]2O)C=CC1", "note": "[NADH]", "values": [{"measurement": "Km", "setting": "NADPH oxidase", "result": 450, "unit": "µM"}]}, {"compound": "NC(=O)C1=CN([C@@H]2O[C@H](COP(=O)(O)OP(=O)(O)OC[C@H]3O[C@@H](n4cnc5c(N)ncnc54)[C@H](OP(=O)(O)O)[C@@H]3O)[C@@H](O)[C@H]2O)C=CC1", "note": "[NADPH]", "values": [{"measurement": "Km", "setting": "NADPH oxidase", "result": 45, "unit": "µM"}]}, {"compound": "c1ccc2c(c1)[I+]c1ccccc1-2", "note": "[diphenlyeneiodonium]", "values": [{"measurement": "effectiveness in treating the pharyngotosillitis", "setting": "[1]", "result": "effective"}]}, {"compound": "Cl.Cl.NCCc1c[nH]cn1", "note": "[histamine dihydrochloride]", "values": [{"measurement": "damage caused by the viral outbreak", "setting": "[2]", "result": "reduces"}, {"measurement": "discomfort of the patient", "setting": "[2]", "result": "reduces the discomfort of the patient"}, {"measurement": "time period of viral activity", "setting": "[2]", "result": "reduces the time period of viral activity"}, {"measurement": "time required for the healing of the herpetic lesions", "setting": "[3]", "result": "reduces the time required for the healing"}, {"measurement": "rate of reduction in symptoms", "setting": "psoriasis of the scalp; shampoo approx. 0.008% by weight once per day with UVB, compared to UVB treatment alone", "result": "reduction in symptoms at a greater rate"}, {"measurement": "irritation of the affected area", "setting": "psoriasis of the scalp; shampoo approx. 0.008% by weight once per day, with UVB treatment", "result": "reduces the irritation of the affected area"}, {"measurement": "general condition of the skin in the affected area", "setting": "eczema", "result": "increase in the general condition of the skin"}, {"measurement": "symptoms of eczema", "setting": "eczema", "result": "decrease in the symptoms"}, {"measurement": "discomfort of the subject", "setting": "chemical burn injuries", "result": "reduces the discomfort"}, {"measurement": "healing of the burn injuries", "setting": "chemical burn injuries", "result": "promotes healing"}, {"measurement": "healing of the incision", "setting": "incision of the skin", "result": "promotes healing of the incision"}, {"measurement": "scar formation", "setting": "incision of the skin", "result": "reduces scar formation"}, {"measurement": "rate of healing", "setting": "[4]", "result": "rate of healing is increased"}, {"measurement": "rate of healing", "setting": "[5]", "result": "rate of healing is increased"}, {"measurement": "rate of healing", "setting": "periodontal disease", "result": "rate of healing is increased"}, {"measurement": "healing time of herpetic lesions", "setting": "herpes labialis [6]", "result": "decrease in healing time"}, {"measurement": "size of the herpetic lesions forming during the outbreak period", "setting": "herpes labialis [7]", "result": "decrease in the size of the herpetic lesions"}, {"measurement": "healing of vesicles", "setting": "[8]", "result": "causes the vesicles to heal rapidly"}, {"measurement": "level of discomfort experienced by the subject", "setting": "[8]", "result": "decreases the level of discomfort"}]}, {"compound": "NCCc1c[nH]cn1", "note": "[histamine]", "values": [{"measurement": "blistering and amount of skin sloughed off as a result of the irradiation", "setting": "[9]", "result": "decrease in blistering and the amount of skin sloughed off"}, {"measurement": "discomfort in the subject", "setting": "[9]", "result": "reduction of discomfort"}]}, {"compound": "NCCc1c[nH]c2ccc(O)cc12", "note": "[serotonin]", "values": [{"measurement": "discomfort of the subject", "setting": "thermal burn injuries", "result": "reduces the discomfort"}, {"measurement": "healing of the burn injuries", "setting": "thermal burn injuries", "result": "promotes healing"}]}, {"compound": "histamine diphosphate", "values": [{"measurement": "healing time of the ruptured herpetic vesicles", "setting": "herpes genitalis", "result": "reduced the healing time"}, {"measurement": "healing time of the ruptured herpetic vesicles", "setting": "herpes labialis [10]", "result": "reduced the healing time"}]}]}
